We go through 21 compounds from patent publication US12018023B2 (NERVIANO MEDICAL SCIENCES S.R.L., priority 2018, dated 2024).

Structures are written as SMILES. pIC50: −log10 of the molar value.

In one experiment the target is T1, IDH1^R132C (Homo sapiens, UniProt O75874, R132C).
T1 construct: purchased not specified
The experiment in a line: NADPH depletion assay, IDH1 R132C. It counts as biochemical. How it is done: (§1) IDH mutated enzyme activity converting alpha-ketoglutarate to 2-hydroxyglutaric acid is measured using a NADPH depletion assay. In the assay the remaining cofactor is measured at the end of the reaction with the addition of a catalytic excess of diaphorase and resazurin, to generate a fluorescent signal in proportion to the amount of NADPH remaining. IDH1 WT enzyme as well as mutated isoforms IDH1^R132H, IDH1^R132C, and IDH^2R172K enzymes are commercially available proteins (see e.g. Sino Biological, Abcam, Active Motif or Creative BioMart).
(§2) IDH1^R132H homodimer enzyme are diluted to 8 nM, in 10 μL of Assay Buffer (150 mM NaCl, 50 mM Tris-HCl pH 7.6, 10 mM MgCl2, 0.001% Triton X-100, 4 mM β-mercaptoethanol); 0.2 uL of test compound, previously serially diluted 1 to 3, >10 experimental points from 1 mM in DMSO, is added and the mixture is incubated for 15 minutes at room temperature. The reaction is started with the addition of 10 μL of Substrate Mix (12 uM NADPH, 3.4 mM alpha-ketoglutarate in Assay Buffer) and the mixture is incubated for 60 minutes at room temperature. The reaction is terminated with the addition of 5 μl of Detection Buffer (100 μg/mL diaphorase, 30 μM resazurin, in IX Assay Buffer), and is incubated for 15 minute before reading on a ViewLux as platereader at Ex544/Em590.
Compounds are assayed for their activity against IDH1^R132C following the same assay as above with the following modifications: IDH1^R132C and alpha-ketoglutarate final concentrations in the Assay Buffer is 2 nM and 0.14 mM, respectively.

In experiment [1] the target is T2, IDH1^R132H homodimer enzyme (Homo sapiens, UniProt O75874, R132H).
T2 construct: purchased not specified
As to the kind of experiment: NADPH depletion assay, IDH1 R132H. It counts as biochemical. How it is done:
as §1, §2

T1 sequence (O75874 whole entry R132C): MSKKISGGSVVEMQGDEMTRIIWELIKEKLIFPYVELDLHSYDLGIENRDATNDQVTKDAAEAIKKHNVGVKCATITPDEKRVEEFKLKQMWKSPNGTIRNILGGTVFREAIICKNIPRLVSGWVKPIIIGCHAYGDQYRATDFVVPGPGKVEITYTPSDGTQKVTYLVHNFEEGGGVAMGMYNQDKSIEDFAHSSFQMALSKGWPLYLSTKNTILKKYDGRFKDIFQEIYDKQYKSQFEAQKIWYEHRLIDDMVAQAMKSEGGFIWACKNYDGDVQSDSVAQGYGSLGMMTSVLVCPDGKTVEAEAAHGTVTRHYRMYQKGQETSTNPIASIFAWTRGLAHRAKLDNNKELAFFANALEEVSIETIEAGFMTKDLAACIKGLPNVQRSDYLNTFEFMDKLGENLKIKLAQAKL
T2 sequence (O75874 whole entry R132H): as the sequence (O75874 whole entry R132C) above, with C132H counted along it

With `CC(C)[C@H](C)n1c(=O)ccc2cnc(N[C@@H](C)c3ccc(N4CCOCC4)cc3)nc21` [cpd 173, 8-[(2S)-3-methylbutan-2-yl]-2-({(1S)-1-[4-(morpholin-4-yl)phenyl]ethyl}amino)pyrido[2,3-d]pyrimidin-7(8H)-one], the values for the pIC50 (on IDH1^R132C; in experiment [1]) were 6.84 and 6.24, respectively.

For the compound `CC(C#N)n1c(=O)ccc2cnc(N[C@@H](C)c3ccc(CN4CCCC(F)(F)C4)cc3)nc21` (stereo partly drawn) [cpd 64, 2-[2-{[(1S)-1-{4-[(3,3-difluoropiperidin-1-yl)methyl]phenyl}ethyl]amino}-7-oxopyrido[2,3-d]pyrimidin-8(7H)-yl]propanenitrile], the pIC50 against IDH1^R132C was 6.88; in experiment [1] it was 6.68.

Turning to `CC(Nc1ncc2ccc(=O)n(CC(C)(C)C)c2n1)C12CC3CC(CC(C3)C1)C2` (stereo not drawn) [cpd 44, 8-(2,2-dimethylpropyl)-2-{[1-(tricyclo[3.3.1.1^3,7]dec-1-yl)ethyl]amino}pyrido[2,3-d]pyrimidin-7(8H)-one], the results for the pIC50 (against IDH1^R132C; in experiment [1]) were 6.09 and 5.96, respectively.

Regarding `COCCn1c(=O)ccc2cnc(N[C@@H](C)c3ccc(CN4CCC(F)(F)CC4)cc3)nc21` [cpd 114, 2-{[(1S)-1-{4-[(4,4-difluoropiperidin-1-yl)methyl]phenyl}ethyl]amino}-8-(2-methoxyethyl)pyrido[2,3-d]pyrimidin-7(8H)-one], the pIC50 against IDH1^R132C is 5.72; in experiment [1] it was 5.63.

For `CC(C)[C@H](C)n1c(=O)ccc2cnc(N[C@@H](C)c3ccc(C4=CCN(C(=O)OC(C)(C)C)CC4)cn3)nc21` [cpd 193, tert-butyl 6-[(1S)-1-({8-[(2S)-3-methylbutan-2-yl]-7-oxo-7,8-dihydropyrido[2,3-d]pyrimidin-2-yl}amino)ethyl]-3′,6′-dihydro-3,4′-bipyridine-1′(2′H)-carboxylate], the pIC50 against IDH1^R132C is 7.05; in experiment [1], 6.90.

`C=CC(=O)N1CCN(Cc2ccc([C@H](C)Nc3nc(OCC)c4ccc(=O)n(CC(C)(C)C)c4n3)cc2)CC1` [cpd 201, 2-{[(1S)-1-{4-[(4-acryloylpiperazin-1-yl)methyl]phenyl}ethyl]amino}-8-(2,2-dimethylpropyl)-4-ethoxypyrido[2,3-d]pyrimidin-7(8H)-one]: the pIC50 against IDH1^R132C is 6.76; in experiment [1], 6.38.

For `C[C@H](Nc1ncc2ccc(=O)n(Cc3ccccc3)c2n1)c1nc(-c2ccc(Cl)cc2)no1` [cpd 53, 8-benzyl-2-({(1S)-1-[3-(4-chlorophenyl)-1,2,4-oxadiazol-5-yl]ethyl}amino)pyrido[2,3-d]pyrimidin-7(8H)-one], the negative-log IC50 (pIC50) at IDH1^R132C was 6.28; in experiment [1], 6.03.

Regarding `C[C@H](Nc1ncc2cc(F)c(=O)n(CC(C)(C)C)c2n1)c1ccc(CN2CCCC(F)(F)C2)cc1` [cpd 57, 2-{(S)-1-[4-(3,3-Difluoro-piperidin-1-ylmethyl)-phenyl]-ethylamino}-8-(2,2-dimethyl-propyl)-6-fluoro-8H-pyrido [2,3-d]pyrimidin-7-one], the pIC50 was 6.68 against IDH1^R132C and 6.27 in experiment [1].

On to `COC(=O)c1ccc([C@H](C)Nc2ncc3ccc(=O)n(Cc4ccccc4)c3n2)cc1` [cpd 1, Methyl 4-{(1S)-1-[(8-benzyl-7-oxo-pyrido[2,3-d]pyrimidin-2-yl)amino]ethyl}benzoate], for which the figures for the pIC50 (on IDH1^R132C; in experiment [1]) were 6.21 and 5.74, respectively.

For `C=CC(=O)N1CCN(Cc2ccc([C@H](C)Nc3cc4c(ccc(=O)n4CC)cn3)cc2)CC1` [cpd 236, 7-{(S)-1-[4-(4-Acryloyl-piperazin-1-ylmethyl)-phenyl]-ethylamino}-1-ethyl-1H-[1,6]naphthyridin-2-one], the pIC50 on IDH1^R132C was 6.98.

In the case of `CC(C)(C)Cn1c(=O)ccc2cnc(NC3(c4ccccc4)CCC3)nc21` [cpd 43, 8-(2,2-dimethylpropyl)-2-[(1-phenylcyclobutyl)amino]pyrido[2,3-d]pyrimidin-7(8H)-one], the negative-log IC50 (pIC50) at IDH1^R132C was 5.98; in experiment [1], 5.78.

Consider `CCCn1c(=O)ccc2cnc(N[C@@H](C)c3ccc(CN4CCN(C(C)=O)CC4)cc3)nc21` [cpd 103, 2-{[(1S)-1-{4-[(4-acetylpiperazin-1-yl)methyl]phenyl}ethyl]amino}-8-propylpyrido[2,3-d]pyrimidin-7(8H)-one], for which the figures for the pIC50 (on IDH1^R132C; in experiment [1]) were 6.20 and 5.80, respectively.

Take `C[C@H](Nc1ncc2ccc(=O)n(CC(C)(C)C)c2n1)c1ccc(CN2CCOCC2)cc1F` [cpd 153, 8-(2,2-dimethylpropyl)-2-({(1S)-1-[2-fluoro-4-(morpholin-4-ylmethyl)phenyl]ethyl}amino)pyrido[2,3-d]-pyrimidin-7(8H)-one]: the figures for the pIC50 (at IDH1^R132C; in experiment [1]) were 7.39 and 6.65, respectively.

For `CCC(=O)N1CCN(C(CC)c2ccc([C@H](C)Nc3ncc4ccc(=O)n(C(C)C)c4n3)cc2)CC1` (stereo partly drawn) [cpd 240, 2-{[(1S)-1-{4-[1-(4-propanoylpiperazin-1-yl)propyl]phenyl}ethyl]amino}-8-(propan-2-yl)pyrido[2,3-d]pyrimidin-7(8H)-one], the pIC50 against IDH1^R132C was 7.17.

Compound `C=CC(=O)N1CCN(Cc2ccc([C@H](C)Nc3ncc4ccc(=O)n(CC)c4n3)cc2)[C@@H](C)C1` [cpd 210, 2-{[(1S)-1-(4-{[(2S)-4-acryloyl-2-methylpiperazin-1-yl]methyl}phenyl)ethyl]amino}-8-ethylpyrido[2,3-d]pyrimidin-7(8H)-one] gave a negative-log IC50 (pIC50) at IDH1^R132C of 6.74.

As for `C=CC(=O)N1CCN(Cc2ccc([C@H](C)Nc3ncc4ccc(=O)n(CC)c4n3)cc2)C[C@@H]1C` [cpd 211, 2-{[(1S)-1-(4-{[(3S)-4-acryloyl-3-methylpiperazin-1-yl]methyl}phenyl)ethyl]amino}-8-ethylpyrido[2,3-d]pyrimidin-7(8H)-one], the pIC50 against IDH1^R132C was 6.28. This pIC50 is 0.46 log units lower than that of the compound before.

For `C=CC(=O)N1CCN(Cc2ccc([C@H](C)Nc3ncc4ccc(=O)n(CC)c4n3)cc2)C[C@H]1C` [cpd 208, 2-{[(1S)-1-(4-{[(3R)-4-acryloyl-3-methylpiperazin-1-yl]methyl}phenyl)ethyl]amino}-8-ethylpyrido[2,3-d]pyrimidin-7(8H)-one], the pIC50 at IDH1^R132C is 6.67. This pIC50 lies 0.39 log units higher than the previous one.

Compound `C=CC(=O)N1CC[C@@H](Oc2ccc([C@H](C)Nc3ncc4ccc(=O)n(CC)c4n3)cc2)C1` [cpd 223, 2-{[(1S)-1-(4-{[(3R)-1-acryloylpyrrolidin-3-yl]oxy}phenyl)ethyl]amino}-8-ethylpyrido[2,3-d]pyrimidin-7(8H)-one] had a pIC50 on IDH1^R132C of 5.78. Compared with the last compound, the pIC50 is 0.89 log units lower.

`CCn1c(=O)ccc2cnc(N[C@@H](C)c3ccc(CN4CCN(C(=O)OC(C)(C)C)CC4)cc3)cc21` [cpd 232, 4-{4-[(S)-1-(1-Ethyl-2-oxo-1,2-dihydro-[1,6]naphthyridin-7-ylamino)-ethyl]-benzyl}-piperazine-1-carboxylic acid tert-butyl ester] showed a pIC50 against IDH1^R132C of 6.48. This pIC50 lies 0.70 log units higher than the previous one.

Take `CC(C)[C@H](C)n1c(=O)ccc2cnc(N[C@@H](C)c3ccc(N4CCNCC4)nc3)nc21` [cpd 180, 8-[(2S)-3-methylbutan-2-yl]-2-({(1S)-1-[6-(piperazin-1-yl)pyridin-3-yl]ethyl}amino)pyrido[2,3-d]pyrimidin-7(8H)-one]: the pIC50 against IDH1^R132C is 5.45. Compared with the last compound, the pIC50 is 1.03 log units lower.

In the case of `C=CC(=O)N1CCN(Cc2ccc([C@H](C)Nc3ncc4ccc(=O)n(CC)c4n3)cc2)[C@H](C)C1` [cpd 207, 2-{[(1S)-1-(4-{[(2R)-4-acryloyl-2-methylpiperazin-1-yl]methyl}phenyl)ethyl]amino}-8-ethylpyrido[2,3-d]pyrimidin-7(8H)-one], on IDH1^R132C, the pIC50 was 6.20. This pIC50 is 0.75 log units higher than that of the compound before.

In general, pIC50 refers to the IC50 on a negative log10 scale, so that one unit is a factor of ten. A low value points to a high IC50.
